Measurements from US12258425B2, “Peptide compositions and methods of use” (priority 2015, dated 2025).
Where a SMILES comes first, the peptide text is derived from it.

Legend:
[1] = Rabbit intravitreal ocular pharmacokinetic study (vitreous humor and retina); details: IVT in Poloxamer or Polysorbate formulations, 10 day course
Procedure: (§1) This study was conducted to determine the concentrations of Compound 1 in vitreous humor (VH) and retina tissue following intravitreal injections of male Dutch Belted rabbits. Concentrations were determined in tissues at 24, 72, 168, and 240 hours post-dose of a 50 μL bilateral intravitreal (IVT) dose.
(§2) Test system included the following: • Species/Strain/Gender: Male Dutch Belted Rabbits • Supplier: Covance Research Products, Inc. • Age Range: 4 to 5 months • Weight at Receipt (Range of • Weights): 1.51-1.85 kg • Administration Route: Intravitreal (IVT) injection • Duration of Treatment: Single Dose per eye • Formulation Concentrations: 2.0, 1.0, and 0.5 mg/mL Compound 1 triacetate • Dose Volume: 50 μL per eye
(§3) An intravitreal (IVT) injection ocular dose of 50 μL was administered to the globe of each of Dutch Belted rabbit eye.
(§4) At the respective time points the rabbits were euthanized by intravenous barbiturate overdose, and eyes were enucleated and snap frozen. Vitreous humor and retina were collected from all animals and analyzed for Compound 1 by LC-MS/MS

[2] = pH-solubility titration (visual: precipitate, turbidity, viscosity, gel); assay type: physicochemical
Procedure: Compound 1 obtained as a trihydrochloride salt, as described in Example 1, and was screened for aqueous solubility at different pHs, by carrying out pH titrations according to the following protocol. In some cases Met-12 was run through an identical experimental procedure to determine its solubility pH profile under the same conditions.
Compound 1 (10 mg) was dissolved in water (270-900 ? L) in a 2 mL clear plastic centrifuge tube with vortexing to give a pH ˜2.4 solution. […] This solution was then diluted with the appropriate amount of cosolvent or other excipient (sugar, surfactant etc.) to produce a clear acidic solution of 10 mg of Compound 1 in […] of the test solution at room temperature ([…]). Small aliquots of a basic solution (usually sodium hydroxide 1.0 M or 0.1 M, but sometimes other bases when investigating buffers) were added using a microliter syringe. Between additions the solution was mixed by vortexing, and the solution was inspected visually for precipitates of various types, turbidity, as a likely sign of microprecipitates, and viscosity to detect gel formation. pH measurements were taken at all these observation points. Some experiments titrated from the endogenous low pH to pH 10, but later titrations were not carried much above pH 7, or sometimes even lower.

[3] = rat, in vivo
Procedure: (§5) Concentrations were determined in tissues at 24 (Group 1), and 72 hours (Groups 1 and 2) post-dose of a 5 μL bilateral intravitreal (IVT) dose.
(§6) Test system included the following: • Species/Strain/Gender: Norway Brown Rats • Supplier: Charles River, Inc. • Age Range: 1 to 2 months • Weight at Receipt (Range of • Weights): 165.9-181.2 g • Administration Route: Intravitreal (IVT) injection • Duration of Treatment: Single dose per eye • Formulation Concentrations: 0.06 mg/mL ONL-1204 triacetate • Dose Volume: 5 μL per eye Harvesting of Ocular Tissues
(§7) Rats were euthanized by intravenous barbiturate overdose, and eyes were enucleated and snap frozen. Vitreous humor (VH) and retina were collected from all animals and analyzed for Compound 1 by LC-MS/MS.
(§8) For each VH unknown or control blank: Weigh VH into a homogenization tube. Add 4 times the VH weight (mg) of ACN:water:1 M hydrochloric acid (70:20:10, v/v/v) (μL) to the homogenization tube. Add zirconium oxide beads, 2.8 and 1.4 mm size. Homogenize all samples on Precellys®: 5500 rpm, 3×30 second cycles, and 20 seconds between cycles, at a temperature between −10 to 0° C.
(§9) For each retina unknown or control blank: • Weigh retina tissue into a homogenization tube. • Add 4 times the tissue weight (mg) of ACN:water:1 M hydrochloric acid (70:20:10, v/v/v) (μL) to the homogenization tube. • Add zirconium oxide beads, 1.4 mm size. • Homogenize all samples on Precellys®: 5500 rpm, 3×30 second cycles, and 20 seconds between cycles, at a temperature between −10 to 0° C. Preparation of Standards, Samples, and Blanks Preparation of Calibration Stock and Working Standards
(§10) One hundred (100) μL of each vitreous humor sample with ACN: formic acid (1000:1, v/v) was then aliquoted. One hundred (100) μL of DMSO:water:formic acid (50:40:10) was added to each vitreous humor sample. The samples were vortex mixed then centrifuged for 10 minutes at 14,000 rpm (4° C.). To 50.0 μL supernatant, 100 μL of working internal standard (50,000 ng/mL APi1887 in water) (water for the blank without internal standard), and 150 μL of water were added. The samples were then vortex mixed and transferred to an autosampler plate for analysis.
(§11) In a polypropylene tube, 50 μL of Brown Norway rat unknown homogenate, bovine control blank or calibration standard Bovine homogenate was added. Fifty (50) μL of DMSO:water:formic acid (50:40:10) was added to each sample. The samples were then vortex mixed and centrifuged for 10 minutes at 14,000 rpm (4° C.). Eighty (80) μL of each sample supernatant was then aliquoted to a 96-well autosampler plate. Forty (40) μL of working internal standard (5,000 ng/mL APi1887 in water) (water for the blank without internal standard), and 120 μL of water were added. The samples were then mixed with a multichannel pipette and analyzed.

[4] = rabbit, in vivo
Procedure: as §1, §2, §3, §4

in vivo [5] = details: male, Dutch Belted, rabbit
Procedure: as §1, §2, §3, §4

in vivo [6] = details: Brown Norway, rat, 0.3 ug/eye, Mean concentration in rat retina
Procedure: as §5, §6, §7, §8, §9, §10, §11

[7] = 0.025 mg/eye, Calculated Concentration in vitreous humor
[8] = 0.05 mg/eye, Calculated Concentration in retina
[9] = 0.05 mg/eye, Calculated Concentration in vitreous humor
[10] = 0.05 mg/eye, Mean concentration in retina
[11] = 0.1 mg/eye, Calculated Concentration in retina
[12] = 0.1 mg/eye, Calculated Concentration in vitreous humor
[13] = 0.1 mg/eye, Mean concentration in retina

Compound: CC[C@H](C)[C@H](NC(=O)[C@H](Cc1ccc(O)cc1)NC(=O)[C@H](CC(N)=O)NC(=O)[C@@H](NC(=O)[C@H](C)NC(=O)CNC(=O)[C@H](CC(C)C)NC(=O)[C@H](Cc1ccc(O)cc1)NC(=O)[C@@H](NC(=O)[C@H](Cc1cnc[nH]1)NC(=O)[C@@H](N)Cc1cnc[nH]1)[C@@H](C)CC)C(C)C)C(=O)N[C@@H](Cc1ccc(O)cc1)C(N)=O [Compound 1, His-His-Ile-Tyr-Leu-Gly-Ala-Val-Asn-Tyr-Ile-Tyr-NHz] (H-HHIYLGAVNYIY-NH2)
- Irritation / tolerability [1]: no signs of irritation or tolerability issues
- Aqueous solubility (in words) [2]: poor aqueous solubility above pH˜3
- Behaviour on standing overnight [2]: the solution gelled, and the pH dropped by about 0.2 units
- solubility ([2]; pH 2.4): ≥ 40 mg/mL
- Clearance from VH in the first 24 hours [3]: about half the drug cleared the VH
- Terminal half-life in VH [3]: on the order of several days
- Terminal t1/2 in Retina ([4]; male, Dutch Belted): 199 h
- Mean concentration in retina ([4]; male, Dutch Belted, 0.025 mg/eye, 168 h): 1440 ng/g
- VH AUC0-last of Group 1 (2 mg/mL) relative to Groups 2 and 3 (0.5 mg/mL) [4]: approximate four times greater AUC
- level at 24 h (in vivo [5]; [7]): 22000 ng/mL
- level at 168 h (in vivo [5]; [7]): 22300 ng/mL
- level at 240 h (in vivo [5]; [7]): 18000 ng/mL
- tissue level at time at 168 h (in vivo [5]; 0.025 mg/eye, Mean concentration in retina): 912 ng/g
- tissue level at time at 72 h (in vivo [5]; [8]): 172 ng/g
- tissue level at time at 168 h (in vivo [5]; [8]): 204 ng/g
- tissue level at time at 240 h (in vivo [5]; [8]): 109 ng/g
- level at 24 h (in vivo [5]; [9]): 44000 ng/mL
- level at 72 h (in vivo [5]; [9]): 39600 ng/mL
- level at 168 h (in vivo [5]; [9]): 25900 ng/mL
- tissue level at time at 24 h (in vivo [5]; [10]): 206 ng/g
- tissue level at time at 72 h (in vivo [5]; [10]): 95 ng/g
- tissue level at time at 168 h (in vivo [5]; [10]): 51 ng/g
- tissue level at time at 240 h (in vivo [5]; [10]): 27.3 ng/g
- level at 240 h (in vivo [5]; [11]): 112 ng/mL
- tissue level at time at 240 h (in vivo [5]; [11]): 559 ng/g
- level at 24 h (in vivo [5]; [12]): 75900 ng/mL
- level at 72 h (in vivo [5]; [12]): 125000 ng/mL
- level at 168 h (in vivo [5]; [12]): 84800 ng/mL
- level at 240 h (in vivo [5]; [12]): 79400 ng/mL
- tissue level at time at 24 h (in vivo [5]; [13]): 596 ng/g
- tissue level at time at 72 h (in vivo [5]; [13]): 1630 ng/g
- tissue level at time at 168 h (in vivo [5]; [13]): 354 ng/g
- tissue level at time at 240 h (in vivo [5]; [13]): 490 ng/g
- half-life (in vivo [5]; Terminal t1/2 in Retina): 168 h
- half-life (in vivo [5]; t1/2 in VH): > 900 h
- tissue level at time at 24 h (in vivo [6]): 1210 ng/g
- tissue level at time at 72 h (in vivo [6]): 570 ng/g
